Read-outs that look alike come from different tables or passages of the source.
How the values were obtained:
[1] = test system: DND41 (T-ALL leukaemia) cells; assay: Proliferation of DND41 cells, 4 days; assay type: cell-based; settings: doses exceeding 10 μM of each drug, alone and in combination
Procedure: Inventors' model predictions were corroborated by cell line experiments where proliferation responses of T-ALL cells (DND41) to Type I inhibitor Ruxolitinib, Type II inhibitor CHZ868, and their combination were measured (FIG. 17). […] However, the inventors observed saturation of inhibition of cellular proliferation. […] This incomplete inhibition of proliferation is explained by activation of STAT family of transcription factors by alternative signalling pathways.

RAF = settings: literature values; cited from earlier work
[2] = test system: HER2-positive breast cancer cells; assay: HER2-positive breast cancer cells stimulated with Heregulin (HRG); assay type: cell-based
Procedure: Thus, in order to model conditions of resistance to ErbB inhibitors, all proliferation assays were performed in the presence of HRG.

[3] = test system: ERK signaling, MEL-JUSO cells; assay: ERK signaling in growing MEL-JUSO cells, Western Blot, 1 hr; assay type: cell-based; settings: trametinib at doses that do not fully inhibit ERK activation
Procedure: Cells were transferred on ice, scraped using lysis buffer (10 mM Tris pH 7.5, 150 mM NaCl, and 0.5% (v/v) NP-40) complemented with protease and phosphatase inhibitors, and the cellular debris removed from the lysate by centrifugation at 10,000×g at 4° C. for 10 min. […] Lysates were then resolved by SDS PAGE (12%) and transferred on a polyvinylidene difluoride membrane (Millipore). Protein visualization was performed in combination with horseradish peroxidase-conjugated secondary antibodies (Cell Signalling Technologies) and the enhanced chemiluminescence system (GE Healthcare) using the Advanced Molecular Vision Chemi Image Unit associated with ChemoStar Imager (INTAS Science Imaging Instruments GmbH) for the following antibodies: Polyclonal rabbit anti-human mitogen-activated protein (MAP) kinase [extra-cellular signal-regulated kinase (ERK) 1 and ERK2] antibody (Sigma), monoclonal mouse anti-human MAP kinase activated (diphosphorylated ERK1 and ERK2) antibody (Sigma).

[4] = test system: MEK signaling, A375 (WT RAS, BRAF^V600E/V600E) cells; assay: cells; settings: Homo sapiens, A-375, 1 h, read-out: IC50, MEK signaling response
Procedure: (§1) Cell lines were either purchased from ATCC (SKMEL2, A375) or DSMZ (MEL-JSUO). […] All cells were grown in RPMI (Gibco) supplemented with 2 mM L-glutamine and 10% (v/v) fetal bovine serum in a humidified atmosphere of 5% CO2 at 37° C. Cells were seeded in 12-well plates (Greiner CELLSTAR dishes) at the density of 10^5 cells per well. After reaching sufficient confluency, cells were treated with different concentrations of inhibitors and DMSO as control. To prepare the protein lysates, plates were transferred on ice, washed with ice-cold PBS and harvested by scraping in specific ELISA buffers as indicated below.
(§2) Briefly, following the addition of complete MSD lysis buffer and scraping the cells from the surface of the dish, the cellular debris was removed from the lysate by centrifugation at 10000×g at 4° C. for 10 min. Protein concentration was determined using the BCA test according to the manufacturer's instructions (Pierce™ BCA Protein Assay Kit).

[5] = test system: ERK signaling, MEL-JUSO cells; assay: ERK signaling (ppERK) in growing MEL-JUSO cells, MESOSCALE system, 24 hr; assay type: cell-based; settings: applied separately, high doses (12 μM), following paradoxical activation
Procedure: as §1, §2

[6] = test system: ERK signaling, MEL-JUSO cells; assay: ERK signaling (ppERK) in growing MEL-JUSO cells, LUMINEX xMAP, 24 hr; assay type: cell-based; settings: extending into the micromolar range
Procedure: Following the addition of complete Luminex lysis buffer and scraping the cells from the surface of the dish, the cellular debris was removed from the lysate by centrifugation at 10000×g at 4° C. for 10 min. The pellet was discarded and the protein concentration of lysates was adjusted to 0.3 μg/μL using the BCA assay kit. xMAP assays were performed on a Luminex-3D platform (Luminex, Austin, TX) using commercially available phosphoprotein antibody-coupled beads (ProtATonce, Athens, Greece). […] Additionally, for loading control the levels of glyceraldehyde 3-phosphate dehydrogenase (GAPDH) protein were analyzed in a separate setting.

all RAF isoforms = settings: literature (King 2006; Wan 2004; Wilhelm 2004); cited from earlier work
MEL-JUSO cells = assay: Cell proliferation assay (MTS) in MEL-JUSO cells; assay type: cell-based; settings: Homo sapiens, read-out: GI50 (a dose inhibiting cell proliferation by 50%)
Procedure: Cell proliferation was analyzed by CellTiter 96 Aqueous One Solution Cell Proliferation Assay (MTS; Promega) according to manufacturer's instructions. For this, 5,000 cells were plated per well of 96-well tissue culture plates (in 200 μL of medium).

## CC(=O)Nc1cc(Oc2ccc3c(nc(Nc4ccc(F)cc4F)n3C)c2C)ccn1 [CHZ868]
[1]
  plateau level of suppression of cellular proliferation: ~60%

## COC(=O)N[C@@H](C)CNc1nccc(-c2cn(C(C)C)nc2-c2cc(Cl)cc(NS(C)(=O)=O)c2F)n1 [LGX818]
RAF
  1/koff: ≥ 2 h

## CS(=O)(=O)CCNCc1ccc(-c2ccc3ncnc(Nc4ccc(OCc5cccc(F)c5)c(Cl)c4)c3c2)o1 [Lapatinib]
[2]
  sensitivity of cells after stimulation with Heregulin (HRG): resistant to Lapatinib treatment

## N#CC[C@H](C1CCCC1)n1cc(-c2ncnc3[nH]ccc23)cn1 [Ruxolitinib]
[1]
  plateau level of suppression of cellular proliferation: ~60%

## CC(C)(C)c1nc(-c2cccc(NS(=O)(=O)c3c(F)cccc3F)c2F)c(-c2ccnc(N)n2)s1 [dabrafenib]
[3]
  effect on ERK signaling of addition to trametinib: increases rather than decreases ERK signaling

## CNC(=O)c1cc(Oc2ccc(NC(=O)Nc3ccc(Cl)c(C(F)(F)F)c3)cc2)ccn1 [sorafenib]
[4]
  IC50: 44 µM
[5]
  ppERK response: could only slightly inhibit ppERK
[6]
  ERK response to each inhibitor applied separately: marked paradoxical ERK activation
All RAF isoforms
  inhibition of RAF isoforms in in vitro kinase assays: low nM range
MEL-JUSO cells; MEL-JUSO
  GI50: 8 µM

## CCCS(=O)(=O)Nc1ccc(F)c(C(=O)c2c[nH]c3ncc(-c4ccc(Cl)cc4)cc23)c1F [vemurafenib]
MEL-JUSO cells; MEL-JUSO cells, applied individually
  GI50: 32 µM
